Assay results taken from publication doi:10.1101/2021.04.08.439011v1 (biorxiv, 2021).
Like-named read-outs stand apart in the source and are kept apart here.

Key:
MST2 = MST2 (Homo sapiens, UniProt Q13188); conditions: 1 µM; binder
CSNK1A1L = CSNK1A1L (Homo sapiens, UniProt Q8N752); conditions: 1 µM; binder
ADCK4 = ADCK4 (Homo sapiens, UniProt Q96D53); conditions: 1 µM; binder
AAK1 = AAK1 (Homo sapiens, UniProt Q2M2I8); conditions: 1 µM; binder
TXK = TXK (Homo sapiens, UniProt P42681); conditions: 1 µM; binder
NEK11 = NEK11 (Homo sapiens, UniProt Q8NG66); conditions: 1 µM; binder
DLK = DLK (Homo sapiens, UniProt Q12852); conditions: 1 µM; binder
DLK, sequence (Q12852 whole entry): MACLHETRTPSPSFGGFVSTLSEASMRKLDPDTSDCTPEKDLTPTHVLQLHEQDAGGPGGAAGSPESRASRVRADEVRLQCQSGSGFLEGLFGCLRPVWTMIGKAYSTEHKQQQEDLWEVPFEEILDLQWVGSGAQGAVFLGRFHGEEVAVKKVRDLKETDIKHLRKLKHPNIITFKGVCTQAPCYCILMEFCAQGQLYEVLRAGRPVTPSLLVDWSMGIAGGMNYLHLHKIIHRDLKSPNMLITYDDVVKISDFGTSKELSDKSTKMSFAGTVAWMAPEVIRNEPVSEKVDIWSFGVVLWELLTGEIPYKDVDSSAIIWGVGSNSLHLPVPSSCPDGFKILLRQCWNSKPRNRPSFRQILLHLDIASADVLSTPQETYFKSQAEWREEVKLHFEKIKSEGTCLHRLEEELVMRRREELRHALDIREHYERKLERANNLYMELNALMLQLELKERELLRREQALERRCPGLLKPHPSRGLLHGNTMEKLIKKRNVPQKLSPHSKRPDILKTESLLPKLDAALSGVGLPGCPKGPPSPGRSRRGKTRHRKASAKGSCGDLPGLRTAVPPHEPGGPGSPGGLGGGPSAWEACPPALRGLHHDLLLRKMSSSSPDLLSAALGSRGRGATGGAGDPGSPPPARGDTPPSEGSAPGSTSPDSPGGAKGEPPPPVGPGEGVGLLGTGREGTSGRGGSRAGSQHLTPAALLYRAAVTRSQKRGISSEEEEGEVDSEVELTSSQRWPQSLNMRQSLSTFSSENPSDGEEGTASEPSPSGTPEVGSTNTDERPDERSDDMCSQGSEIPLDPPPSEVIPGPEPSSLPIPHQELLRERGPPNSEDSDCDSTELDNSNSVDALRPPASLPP

IKK-epsilon = IKK-epsilon (Homo sapiens, UniProt Q14164); conditions: 1 µM; binder
KIT(V559D) = KIT(V559D) (Homo sapiens, UniProt P10721, V559D); conditions: 1 µM; binder
CDK5 = CDK5 (Homo sapiens, UniProt Q00535); conditions: 1 µM; binder
CDK5, sequence (Q00535 whole entry): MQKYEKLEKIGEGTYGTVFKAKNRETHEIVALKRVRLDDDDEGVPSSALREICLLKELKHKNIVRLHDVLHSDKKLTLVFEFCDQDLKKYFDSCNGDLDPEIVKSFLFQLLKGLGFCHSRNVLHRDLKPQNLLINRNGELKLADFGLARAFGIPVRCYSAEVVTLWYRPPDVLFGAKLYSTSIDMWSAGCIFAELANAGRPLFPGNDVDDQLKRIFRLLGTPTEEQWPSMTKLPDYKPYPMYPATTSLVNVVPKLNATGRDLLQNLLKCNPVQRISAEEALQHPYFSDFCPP

CDK3 = CDK3 (Homo sapiens, UniProt Q00526); conditions: 1 µM; binder
RPS6KA5 = RPS6KA5 (Homo sapiens, UniProt O75582); conditions: Kin.Dom.1 N-terminal; binder
CAMK2B = CAMK2B (Homo sapiens, UniProt Q13554); conditions: 1 µM; binder
WNK3 = WNK3 (Homo sapiens, UniProt Q9BYP7); conditions: 1 µM; binder
FRK = FRK (Homo sapiens, UniProt P42685); conditions: 1 µM; binder
FRK, sequence (P42685 whole entry): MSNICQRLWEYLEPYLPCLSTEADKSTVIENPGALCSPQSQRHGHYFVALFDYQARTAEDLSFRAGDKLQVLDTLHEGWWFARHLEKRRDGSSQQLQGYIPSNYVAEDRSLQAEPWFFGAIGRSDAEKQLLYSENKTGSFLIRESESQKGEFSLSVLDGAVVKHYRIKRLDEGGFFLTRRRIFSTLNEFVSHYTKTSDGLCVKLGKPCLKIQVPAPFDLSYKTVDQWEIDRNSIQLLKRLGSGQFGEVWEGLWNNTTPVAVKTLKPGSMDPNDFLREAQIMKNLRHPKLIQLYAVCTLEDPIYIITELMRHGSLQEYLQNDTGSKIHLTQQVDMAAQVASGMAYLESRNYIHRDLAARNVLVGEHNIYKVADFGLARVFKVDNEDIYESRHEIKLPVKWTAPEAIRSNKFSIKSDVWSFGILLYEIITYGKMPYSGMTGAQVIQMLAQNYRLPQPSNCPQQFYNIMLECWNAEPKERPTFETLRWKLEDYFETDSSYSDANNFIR

MATK = MATK (Homo sapiens, UniProt P42679); conditions: 1 µM; binder
EGFR(E746-A750del) = EGFR(E746-A750del) (Homo sapiens, UniProt P00533, DEL746-750); conditions: 1 µM; binder
TGFBR1 = TGFBR1 (Homo sapiens, UniProt P36897); conditions: 1 µM; binder
DAPK3 = DAPK3 (Homo sapiens, UniProt O43293); conditions: 1 µM; binder
JNK1 = JNK1 (Homo sapiens, UniProt P45983); conditions: 1 µM; binder
FLT3(ITD,F691L) = FLT3(ITD,F691L) (Homo sapiens, UniProt P36888, F691L/ITD); conditions: 1 µM; binder
RPS6KA6 = RPS6KA6 (Homo sapiens, UniProt Q9UK32); conditions: binder
RPS6KA6, sequence (Q9UK32 whole entry): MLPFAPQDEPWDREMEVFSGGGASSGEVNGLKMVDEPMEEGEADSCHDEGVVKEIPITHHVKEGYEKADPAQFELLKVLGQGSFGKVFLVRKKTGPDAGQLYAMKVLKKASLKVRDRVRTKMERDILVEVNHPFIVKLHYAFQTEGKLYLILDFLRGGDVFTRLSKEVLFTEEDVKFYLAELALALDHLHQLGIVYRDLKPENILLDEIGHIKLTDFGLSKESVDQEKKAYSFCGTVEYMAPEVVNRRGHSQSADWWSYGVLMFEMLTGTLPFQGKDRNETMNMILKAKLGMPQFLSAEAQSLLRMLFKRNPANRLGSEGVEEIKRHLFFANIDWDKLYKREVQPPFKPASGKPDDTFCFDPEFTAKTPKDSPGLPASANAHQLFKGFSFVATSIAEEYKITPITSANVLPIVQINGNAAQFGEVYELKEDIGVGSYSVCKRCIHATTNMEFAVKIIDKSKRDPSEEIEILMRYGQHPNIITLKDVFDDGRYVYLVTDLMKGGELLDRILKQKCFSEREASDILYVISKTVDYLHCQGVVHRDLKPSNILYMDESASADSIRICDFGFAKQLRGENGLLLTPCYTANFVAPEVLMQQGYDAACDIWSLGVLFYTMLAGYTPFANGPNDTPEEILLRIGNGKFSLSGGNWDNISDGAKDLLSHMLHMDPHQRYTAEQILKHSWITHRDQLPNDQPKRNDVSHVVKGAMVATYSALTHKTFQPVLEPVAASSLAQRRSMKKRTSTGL

PIK3CA(E545A) = PIK3CA(E545A) (Homo sapiens, UniProt P42336, E545A); conditions: 1 µM; binder
BRK = BRK (Homo sapiens, UniProt Q13882); conditions: 1 µM; binder
S6K1 = S6K1 (Homo sapiens, UniProt P23443); conditions: 1 µM; binder
S6K1, sequence (P23443 whole entry): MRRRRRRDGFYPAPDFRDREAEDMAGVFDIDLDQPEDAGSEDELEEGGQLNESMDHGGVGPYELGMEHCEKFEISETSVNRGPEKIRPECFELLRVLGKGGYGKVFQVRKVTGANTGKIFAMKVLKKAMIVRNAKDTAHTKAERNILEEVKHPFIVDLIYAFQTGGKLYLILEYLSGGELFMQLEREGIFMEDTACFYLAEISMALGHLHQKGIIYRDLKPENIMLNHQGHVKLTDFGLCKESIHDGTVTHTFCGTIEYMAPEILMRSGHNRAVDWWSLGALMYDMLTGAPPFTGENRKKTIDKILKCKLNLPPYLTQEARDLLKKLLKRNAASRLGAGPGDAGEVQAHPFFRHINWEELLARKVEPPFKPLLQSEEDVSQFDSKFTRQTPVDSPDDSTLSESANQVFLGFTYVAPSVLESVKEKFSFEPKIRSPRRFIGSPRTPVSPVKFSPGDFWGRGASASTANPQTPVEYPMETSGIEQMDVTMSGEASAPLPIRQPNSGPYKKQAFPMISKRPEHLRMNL

EPHA2 = EPHA2 (Homo sapiens, UniProt P29317); conditions: 1 µM; binder
CLK3 = CLK3 (Homo sapiens, UniProt P49761); conditions: 1 µM; binder
CLK3, sequence (P49761 whole entry): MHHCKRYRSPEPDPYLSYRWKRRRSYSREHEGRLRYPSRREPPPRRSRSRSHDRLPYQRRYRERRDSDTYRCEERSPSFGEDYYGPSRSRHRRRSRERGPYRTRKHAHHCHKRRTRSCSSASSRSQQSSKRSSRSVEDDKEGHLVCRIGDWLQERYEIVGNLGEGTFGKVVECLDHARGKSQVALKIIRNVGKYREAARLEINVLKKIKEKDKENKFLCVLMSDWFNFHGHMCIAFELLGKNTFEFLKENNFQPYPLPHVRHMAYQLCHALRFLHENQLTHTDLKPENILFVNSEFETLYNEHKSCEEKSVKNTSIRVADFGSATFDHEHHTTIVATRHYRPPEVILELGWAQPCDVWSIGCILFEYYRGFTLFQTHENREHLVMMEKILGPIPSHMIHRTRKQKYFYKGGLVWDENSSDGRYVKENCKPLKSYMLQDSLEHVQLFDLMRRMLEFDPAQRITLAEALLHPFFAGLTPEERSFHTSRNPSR

PIK3CA(H1047Y) = PIK3CA(H1047Y) (Homo sapiens, UniProt P42336, H1047Y); conditions: 1 µM; binder
DCAMKL1 = DCAMKL1 (Homo sapiens, UniProt O15075); conditions: 1 µM; binder
AURKC = AURKC (Homo sapiens, UniProt Q9UQB9); conditions: 1 µM; binder

AAK1, sequence (Q2M2I8 whole entry): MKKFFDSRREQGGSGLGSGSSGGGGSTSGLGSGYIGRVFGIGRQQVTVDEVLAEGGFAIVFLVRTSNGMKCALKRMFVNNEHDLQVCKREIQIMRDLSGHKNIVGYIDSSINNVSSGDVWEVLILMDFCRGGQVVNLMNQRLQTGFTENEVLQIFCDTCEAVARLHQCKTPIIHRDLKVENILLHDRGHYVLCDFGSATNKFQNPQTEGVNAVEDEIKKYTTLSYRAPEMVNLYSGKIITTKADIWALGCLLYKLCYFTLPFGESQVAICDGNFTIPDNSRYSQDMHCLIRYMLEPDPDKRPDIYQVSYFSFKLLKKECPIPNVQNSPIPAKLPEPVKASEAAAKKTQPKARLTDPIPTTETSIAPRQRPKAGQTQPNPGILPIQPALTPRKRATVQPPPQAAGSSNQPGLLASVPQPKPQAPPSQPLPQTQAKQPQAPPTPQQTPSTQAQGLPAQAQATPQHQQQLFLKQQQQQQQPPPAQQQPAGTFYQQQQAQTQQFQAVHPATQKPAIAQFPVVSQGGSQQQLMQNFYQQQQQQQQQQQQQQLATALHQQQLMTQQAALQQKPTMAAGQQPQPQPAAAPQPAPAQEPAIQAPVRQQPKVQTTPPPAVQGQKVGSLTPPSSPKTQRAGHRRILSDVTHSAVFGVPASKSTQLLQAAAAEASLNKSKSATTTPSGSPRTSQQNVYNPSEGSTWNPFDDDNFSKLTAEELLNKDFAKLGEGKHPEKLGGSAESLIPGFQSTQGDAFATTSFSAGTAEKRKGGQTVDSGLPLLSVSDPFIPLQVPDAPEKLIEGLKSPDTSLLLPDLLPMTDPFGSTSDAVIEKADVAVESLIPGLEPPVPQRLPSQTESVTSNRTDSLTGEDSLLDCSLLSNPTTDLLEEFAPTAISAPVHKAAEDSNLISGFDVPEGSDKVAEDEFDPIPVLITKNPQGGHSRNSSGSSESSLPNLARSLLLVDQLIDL
MST2, sequence (Q13188 whole entry): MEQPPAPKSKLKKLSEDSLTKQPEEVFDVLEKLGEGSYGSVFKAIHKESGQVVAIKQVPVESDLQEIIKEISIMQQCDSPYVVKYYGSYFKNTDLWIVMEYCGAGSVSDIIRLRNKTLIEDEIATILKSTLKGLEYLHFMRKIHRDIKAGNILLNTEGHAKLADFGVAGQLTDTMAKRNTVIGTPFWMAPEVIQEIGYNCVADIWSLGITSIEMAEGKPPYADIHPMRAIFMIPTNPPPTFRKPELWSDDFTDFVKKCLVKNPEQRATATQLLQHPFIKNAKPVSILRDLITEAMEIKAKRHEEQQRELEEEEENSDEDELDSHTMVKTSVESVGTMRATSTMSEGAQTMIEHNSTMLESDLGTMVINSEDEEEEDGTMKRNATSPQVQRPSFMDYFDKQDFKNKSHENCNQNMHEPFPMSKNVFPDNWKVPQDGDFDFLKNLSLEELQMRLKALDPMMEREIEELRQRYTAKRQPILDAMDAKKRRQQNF

In the case of `CNc1ncc2cc(-c3ccc(-c4cccc(C)n4)cc3Cl)c(=O)n(C[C@H]3OC[C@H](N)CO3)c2n1` [compound 6, G-5555], the “Percent Control” value (MST2) is reported as 27%, the “Percent Control” value (CSNK1A1L) is reported as 100% and the “Percent Control” value (ADCK4) is reported as 100%. The “Percent Control” value (AAK1) was 100%, the “Percent Control” value (TXK) was 100% and the “Percent Control” value (NEK11) was 100%. For the same compound, the “Percent Control” value (DLK) was 100%, the “Percent Control” value (IKK-epsilon) was 78% and the “Percent Control” value (KIT(V559D)) was 100%. The “Percent Control” value (CDK5) was 98%, the “Percent Control” value (CDK3) was 100% and the “Percent Control” value (RPS6KA5) was 100%. For the same compound, the “Percent Control” value (CAMK2B) was 100%, the “Percent Control” value (WNK3) was 100% and the “Percent Control” value (FRK) was 71%. The “Percent Control” value (MATK) was 100%, the “Percent Control” value (EGFR(E746-A750del)) was 100% and the “Percent Control” value (TGFBR1) was 100%. For the same compound, the “Percent Control” value (DAPK3) was 100%, the “Percent Control” value (JNK1) was 41% and the “Percent Control” value (FLT3(ITD,F691L)) was 43%. For the same compound, the “Percent Control” value (RPS6KA6; Kin.Dom.1 N-terminal) was 95%, the “Percent Control” value (RPS6KA6; Kin.Dom.2 C-terminal, 1 µM) was 92% and the “Percent Control” value (PIK3CA(E545A)) was 90%. The “Percent Control” value (BRK) was 100%, the “Percent Control” value (S6K1) was 58% and the “Percent Control” value (EPHA2) was 100%. For the same compound, the “Percent Control” value (CLK3) was 100%, the “Percent Control” value (PIK3CA(H1047Y)) was 86% and the “Percent Control” value (DCAMKL1) was 79%. For the same compound, the “Percent Control” value (AURKC) was 20%.
